Measurements published in patent US20240002438A1, “MELANOCORTIN LIGANDS AND METHODS OF USE THEREOF” (REGENTS OF THE UNIVERSITY OF MINNESOTA, priority 2021, published 2024).
Where two headings read alike, the source gives them in different places. Where a SMILES comes first, the peptide text is derived from it. [ ]: non-standard residue; d: D form. dPhe(4-I) = N[C@H](Cc1ccc(I)cc1)C(=O)O; 2Nal = N[C@@H](Cc1ccc2ccccc2c1)C(=O)O; d2Nal = N[C@H](Cc1ccc2ccccc2c1)C(=O)O

What was measured:
mMC3R [1] = target: T1, mMC3R (Mus musculus, UniProt P33033); experiment: mMC3R | Antagonist Potency Ki (nM); design: expressed in transfected cells; host or cells: HEK293
Description: (§1) Table printed on a drawing sheet, FIGURE 18
(§2) Title: Tetrapeptide Antagonist Pharmacology at the Mouse Melanocortin Receptors.^a
Head of the field: mMC3R | Antagonist Potency Ki (nM)
(§3) First copying reader's note: Columns 4 and 7 are empty spacer columns as printed; the table runs off the bottom of the sheet (continued on the next sheet) and footnotes a and b are not printed here.
Target sequence in this assay (P33033 whole entry, looked up): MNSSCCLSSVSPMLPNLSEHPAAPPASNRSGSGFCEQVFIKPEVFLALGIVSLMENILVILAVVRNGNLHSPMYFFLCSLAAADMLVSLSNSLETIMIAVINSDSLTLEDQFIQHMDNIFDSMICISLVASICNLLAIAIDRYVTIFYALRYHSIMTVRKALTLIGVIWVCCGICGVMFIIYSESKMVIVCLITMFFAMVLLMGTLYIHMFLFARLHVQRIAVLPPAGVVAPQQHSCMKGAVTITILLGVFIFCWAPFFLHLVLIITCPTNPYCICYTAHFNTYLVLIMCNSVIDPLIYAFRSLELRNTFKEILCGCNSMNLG

mMC4R [2] = target: T2, mMC4R (Mus musculus, UniProt P56450); experiment: mMC4R | Antagonist Potency Ki (nM); design: expressed in transfected cells; host or cells: HEK293
Description: as §1, §2
Target sequence in this assay (P56450 whole entry, looked up): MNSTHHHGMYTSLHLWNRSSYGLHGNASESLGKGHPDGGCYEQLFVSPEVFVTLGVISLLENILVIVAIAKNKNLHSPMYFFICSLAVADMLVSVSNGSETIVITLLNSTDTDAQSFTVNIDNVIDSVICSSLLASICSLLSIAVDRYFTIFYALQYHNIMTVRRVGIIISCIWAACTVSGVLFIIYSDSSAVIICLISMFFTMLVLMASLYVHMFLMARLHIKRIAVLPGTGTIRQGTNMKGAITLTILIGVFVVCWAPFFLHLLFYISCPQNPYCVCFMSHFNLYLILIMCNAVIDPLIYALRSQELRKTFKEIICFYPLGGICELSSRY
Head of the field: mMC4R | Antagonist Potency Ki (nM)
as §3

mMC5R = mMC5R (Mus musculus, UniProt P41149); experiment: cAMP AlphaScreen agonist assay at mMC5R, HEK293 cells; conditions: for mMC5R agonist activity: up to 100 μM; for mMC5R partial stimulation, % of the maximal NDP-MSH signal: 100 μM
Description: (§4) Following stimulation, streptavidin donor beads (0.5 μg) and biotinylated-cAMP (0.62 μmol) were added to the wells in a green light environment with 10 μL of lysis buffer (5 mM HEPES, 0.3% Tween-20, 0.1% BSA, pH=7.4) and the plates were incubated in the dark at room temperature for an additional 2 h. Plates were read on a Enspire (PerkinElmer) Alpha-plate reader using a pre-normalized assay protocol (set by the manufacturer).

mMC3R [3] = target: T1, mMC3R; experiment: cAMP AlphaScreen antagonist assay at mMC3R, NDP-MSH as agonist, HEK293 cells; conditions: for mMC3R antagonist activity: at the concentrations assayed; for mMC3R antagonist pA2: NDP-MSH as agonist, HEK293 cells stably expressing mMC3R
Target sequence in this assay (P33033 whole entry): as the sequence (P33033 whole entry, looked up) above

mMC4R [4] = target: T2, mMC4R; experiment: cAMP AlphaScreen antagonist assay at mMC4R, NDP-MSH as agonist, HEK293 cells; conditions: NDP-MSH as agonist; HEK293 cells stably expressing mMC4R
Target sequence in this assay (P56450 whole entry): as the sequence (P56450 whole entry, looked up) above
Description: as §4

Sequence of mMC5R (P41149 whole entry): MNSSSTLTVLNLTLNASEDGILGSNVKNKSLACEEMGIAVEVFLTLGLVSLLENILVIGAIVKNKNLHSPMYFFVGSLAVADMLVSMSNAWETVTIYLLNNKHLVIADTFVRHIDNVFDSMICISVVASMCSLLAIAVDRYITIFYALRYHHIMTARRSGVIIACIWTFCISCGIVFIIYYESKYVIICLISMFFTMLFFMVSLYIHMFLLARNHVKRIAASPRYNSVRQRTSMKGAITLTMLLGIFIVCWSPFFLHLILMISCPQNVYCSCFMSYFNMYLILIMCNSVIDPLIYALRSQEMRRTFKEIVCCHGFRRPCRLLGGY

Compound	Ki (mMC3R [1]) [nM]	Ki (mMC4R [2]) [nM]	also measured
CC(=O)N[C@H](Cc1ccc2ccccc2c1)C(=O)N[C@H](Cc1ccc2ccccc2c1)C(=O)N[C@@H](Cc1c[nH]c2ccccc12)C(=O)N[C@H](CCCCN)C(N)=O [4 | COR1-29-2, Ac-DNal(2’)-DNal(2’)-Trp-DLys-NH2] (Ac-[d2Nal][d2Nal]W[dK]-NH2)	1600	200	
CC(=O)N[C@H](Cc1ccc2ccccc2c1)C(=O)N[C@@H](CCCNC(=N)N)C(=O)N[C@H](Cc1ccc2ccccc2c1)C(=O)N[C@H](CCCCN)C(N)=O [13 | COR1-29-5, Ac-DNal(2’)-Arg-DNal(2’)-DLys-NH2] (Ac-[d2Nal]R[d2Nal][dK]-NH2)	1000	6.3	
CC(=O)N[C@H](Cc1ccc2ccccc2c1)C(=O)N[C@@H](CCCNC(=N)N)C(=O)N[C@H](Cc1ccc2ccccc2c1)C(=O)N[C@H](Cc1ccc2ccccc2c1)C(N)=O [14 | COR2-57, Ac-DNal(2’)-Arg-DNal(2’)-DNal(2’)-NH2] (Ac-[d2Nal]R[d2Nal][d2Nal]-NH2)	2000	500	
CC(=O)N[C@H](Cc1ccc2ccccc2c1)C(=O)N[C@@H](CCCNC(=N)N)C(=O)N[C@H](Cc1ccc2ccccc2c1)C(=O)N[C@@H](CCCNC(=N)N)C(N)=O [15 | COR2-93, Ac-DNal(2’)-Arg-DNal(2’)-Arg-NH2] (Ac-[d2Nal]R[d2Nal]R-NH2)	790	5	
CC(=O)N[C@H](Cc1ccc2ccccc2c1)C(=O)N[C@@H](CCCNC(=N)N)C(=O)N[C@@H](Cc1c[nH]c2ccccc12)C(=O)N[C@H](CCCCN)C(N)=O [16 | COR1-29-6, Ac-DNal(2’)-Arg-Trp-DLys-NH2] (Ac-[d2Nal]RW[dK]-NH2)	3200	20	
CC(=O)N[C@H](Cc1ccc2ccccc2c1)C(=O)N[C@@H](CCCNC(=N)N)C(=O)N[C@@H](Cc1c[nH]c2ccccc12)C(=O)N[C@H](Cc1ccc2ccccc2c1)C(N)=O [17 | COR1-60, Ac-DNal(2’)-Arg-Trp-DNal(2’)-NH2] (Ac-[d2Nal]RW[d2Nal]-NH2)	2000	100	
CC(=O)N[C@H](Cc1ccc2ccccc2c1)C(=O)N[C@@H](CCCNC(=N)N)C(=O)N[C@@H](Cc1c[nH]c2ccccc12)C(=O)N[C@@H](CCCNC(=N)N)C(N)=O [18 | MDE10-27, Ac-DNal(2’)-Arg-Trp-Arg-NH2] (Ac-[d2Nal]RWR-NH2)	160	5	
CC(=O)N[C@H](Cc1ccc2ccccc2c1)C(=O)N[C@@H](CCCNC(=N)N)C(=O)N[C@H](Cc1ccc(I)cc1)C(=O)N[C@H](CCCCN)C(N)=O [19 | COR1-29-7, Ac-DNal(2’)-Arg-DPhe(pI)-DLys-NH2]	130	3.2	
CC(=O)N[C@H](Cc1ccc2ccccc2c1)C(=O)N[C@@H](CCCNC(=N)N)C(=O)N[C@H](Cc1ccc(I)cc1)C(=O)N[C@H](Cc1ccc2ccccc2c1)C(N)=O [20 | COR2-15, Ac-DNal(2’)-Arg-DPhe(pI)-DNal(2’)-NH2] (Ac-[d2Nal]R[dPhe(4-I)][d2Nal]-NH2)	790	320	
CC(=O)N[C@H](Cc1ccc2ccccc2c1)C(=O)N[C@@H](CCCNC(=N)N)C(=O)N[C@H](Cc1ccc(I)cc1)C(=O)N[C@@H](CCCNC(=N)N)C(N)=O [21 | COR2-105, Ac-DNal(2’)-Arg-DPhe(pI)-Arg-NH2] (Ac-[d2Nal]R[dPhe(4-I)]R-NH2)	79	2.5	
CC(=O)N[C@H](Cc1ccc2ccccc2c1)C(=O)N[C@@H](CCCNC(=N)N)C(=O)N[C@@H](Cc1ccc2ccccc2c1)C(=O)N[C@H](CCCCN)C(N)=O [22 | COR1-29-8, Ac-DNal(2’)-Arg-Nal(2’)-DLys-NH2] (Ac-[d2Nal]R[2Nal][dK]-NH2)	630	16	
CC(=O)N[C@H](Cc1ccc2ccccc2c1)C(=O)N[C@@H](CCCNC(=N)N)C(=O)N[C@@H](Cc1ccc2ccccc2c1)C(=O)N[C@H](Cc1ccc2ccccc2c1)C(N)=O [23 | COR2-33, Ac-DNal(2’)-Arg-Nal(2’)-DNal(2’)-NH2] (Ac-[d2Nal]R[2Nal][d2Nal]-NH2)		200	
CC(=O)N[C@H](Cc1ccc2ccccc2c1)C(=O)N[C@@H](CCCNC(=N)N)C(=O)N[C@@H](Cc1ccc2ccccc2c1)C(=O)N[C@@H](CCCNC(=N)N)C(N)=O [24 | MDE10-28, Ac-DNal(2’)-Arg-Nal(2’)-Arg-NH2] (Ac-[d2Nal]R[2Nal]R-NH2)	100	1.6	
CC(=O)N[C@H](Cc1ccc(I)cc1)C(=O)N[C@H](Cc1ccc2ccccc2c1)C(=O)N[C@H](Cc1ccc2ccccc2c1)C(=O)N[C@H](CCCCN)C(N)=O [25 | COR1-80, Ac-DPhe(pI)-DNal(2’)-DNal(2’)-DLys-NH2] (Ac-[dPhe(4-I)][d2Nal][d2Nal][dK]-NH2)		500	
CC(=O)N[C@H](Cc1ccc2ccccc2c1)C(=O)N[C@H](Cc1ccc2ccccc2c1)C(=O)N[C@H](Cc1ccc2ccccc2c1)C(=O)N[C@@H](CCCNC(=N)N)C(N)=O [compound 3, Ac-DNal(2′)-DNal(2′)-DNal(2′)-Arg-NH2] (Ac-[d2Nal][d2Nal][d2Nal]R-NH2)			EC50 (mMC5R): 30 to 800 nM; EC50 (mMC5R; read-out: mMC5R agonist EC50): 130 nM; mMC5R agonist activity (mMC5R): full mMC5R agonists; mMC3R antagonist activity (mMC3R [3]): did not act as antagonists
CC(=O)N[C@H](Cc1ccc2ccccc2c1)C(=O)N[C@H](Cc1ccc2ccccc2c1)C(=O)N[C@H](Cc1ccc(I)cc1)C(=O)N[C@@H](CCCNC(=N)N)C(N)=O [compound 9, Ac-DNal(2′)-DNal(2′)-DPhe(pI)-Arg-NH2] (Ac-[d2Nal][d2Nal][dPhe(4-I)]R-NH2)			EC50 (mMC5R): 30 to 800 nM; EC50 (mMC5R; read-out: mMC5R agonist EC50): 30 nM; mMC5R agonist activity (mMC5R): full mMC5R agonists; mMC3R antagonist activity (mMC3R [3]): did not act as antagonists
CC(=O)N[C@H](Cc1ccc(I)cc1)C(=O)N[C@H](Cc1ccc2ccccc2c1)C(=O)N[C@H](Cc1ccc2ccccc2c1)C(=O)N[C@@H](CCCNC(=N)N)C(N)=O [compound 27, Ac-DPhe(pI)-DNal(2′)-DNal(2′)-Arg-NH2] (Ac-[dPhe(4-I)][d2Nal][d2Nal]R-NH2)			mMC5R agonist activity (mMC5R): full mMC5R agonists; mMC3R antagonist activity (mMC3R [3]): did not act as antagonists
Ac-DNal(2′)-DNal(2′)-Nal(2′)-Arg-NH2 [compound 12]			mMC5R partial stimulation, % of the maximal NDP-MSH signal (mMC5R): 40%
Ac-DNal(2′)-DNal(2′)-Trp-DLys-NH2 [compound 4]			mMC3R antagonist pA2 (mMC3R [3]): 5.8
Ac-DPhe(pI)-DNal(2′)-DNal(2′)-DLys-NH2 [compound 25]			mMC4R antagonist pA2 (mMC4R [4]): 6.3
Ac-DPhe(pI)-DNal(2′)-Nal(2′)-DLys-NH2 [compound 34]			mMC5R partial stimulation, % of the maximal NDP-MSH signal (mMC5R): 50%
Ac-DPhe(pI)-DNal(2′)-Trp-Arg-NH2 [compound 30]			mMC4R antagonist pA2 (mMC4R [4]): 5.6; mMC5R agonist activity (mMC5R): inactive
Ac-DPhe(pI)-DNal(2′)-Trp-DLys-NH2 [compound 28]			mMC4R antagonist pA2 (mMC4R [4]): 6.6; mMC3R antagonist pA2 (mMC3R [3]): 5.7
Ac-[d2Nal]RW[dK]-NH2 [compound 16]			mMC4R antagonist pA2 (mMC4R [4]): 7.7
Ac-[d2Nal]R[2Nal]R-NH2 [compound 24]			mMC4R antagonist pA2 (mMC4R [4]): 8.8
Ac-[d2Nal][d2Nal]WR-NH2 [compound 6]			mMC5R partial stimulation, % of the maximal NDP-MSH signal (mMC5R): 45%
Ac-[dPhe(4-I)]RW[dK]-NH2 [compound 40]			mMC4R antagonist pA2 (mMC4R [4]): 7.6
